Assay [1] addresses T1, insulin receptor (Homo sapiens, UniProt P06213). The assay can be described thus: Insulin receptor binding assay (competition, scintillation proximity). Conditions: for Ratio: Table 3, IGF-1 receptor IC50 over insulin receptor IC50. (Scintillation proximity formats need no separation of bound from free tracer.)
A further assay deals with human IGF-1 receptor (Homo sapiens, UniProt P08069). The assay is described as follows: IGF-1 receptor binding assay (competition, scintillation proximity). The conditions noted are these: Table 3, relative to IGF-1 in the same test.
The target in another assay is T2, glucagon receptor (Homo sapiens, UniProt P47871).
T2 construct: expressed in transfected cells; host or cells: HEK293
The assay can be described thus: Glucagon functional assay, cAMP synthesis (luciferase reporter, HEK293 cells). Type of assay: cell-based. The conditions noted are these: FIG. 12.

Assay [2] addresses T1, insulin receptor. The assay can be described thus: Insulin receptor phosphorylation assay in receptor transfected HEK293 cells. Type of assay: cell-based. Also on record: expressed in transfected cells; host or cells: HEK293. The conditions noted are these: FIGS. 10 and 11.

Where “and” joins values, the source holds several entries; their conditions need not be identical. Identical values can stand only once.

Chain of human IGF-1 receptor (P08069 31-736 limits assumed): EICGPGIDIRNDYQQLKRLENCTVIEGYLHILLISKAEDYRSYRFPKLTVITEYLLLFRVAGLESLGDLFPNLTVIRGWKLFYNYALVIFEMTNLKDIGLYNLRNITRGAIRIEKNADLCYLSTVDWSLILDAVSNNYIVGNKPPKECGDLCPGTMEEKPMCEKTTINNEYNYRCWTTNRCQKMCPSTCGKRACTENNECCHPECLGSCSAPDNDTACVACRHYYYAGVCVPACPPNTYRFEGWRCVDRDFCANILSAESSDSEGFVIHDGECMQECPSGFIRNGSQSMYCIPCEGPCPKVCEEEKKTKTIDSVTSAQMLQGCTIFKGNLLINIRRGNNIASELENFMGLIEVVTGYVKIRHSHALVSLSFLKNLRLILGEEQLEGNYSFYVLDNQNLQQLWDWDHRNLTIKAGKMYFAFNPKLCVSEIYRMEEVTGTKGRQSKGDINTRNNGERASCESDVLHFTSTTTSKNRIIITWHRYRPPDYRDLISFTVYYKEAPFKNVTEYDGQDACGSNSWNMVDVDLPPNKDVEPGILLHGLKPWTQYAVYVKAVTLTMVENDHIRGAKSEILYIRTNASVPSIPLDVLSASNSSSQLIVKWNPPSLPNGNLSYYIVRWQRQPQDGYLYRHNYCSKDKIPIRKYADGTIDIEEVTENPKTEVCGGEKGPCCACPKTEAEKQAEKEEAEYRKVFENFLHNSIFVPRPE
Chain of human IGF-1 receptor (P08069 741-1367 partner limits assumed): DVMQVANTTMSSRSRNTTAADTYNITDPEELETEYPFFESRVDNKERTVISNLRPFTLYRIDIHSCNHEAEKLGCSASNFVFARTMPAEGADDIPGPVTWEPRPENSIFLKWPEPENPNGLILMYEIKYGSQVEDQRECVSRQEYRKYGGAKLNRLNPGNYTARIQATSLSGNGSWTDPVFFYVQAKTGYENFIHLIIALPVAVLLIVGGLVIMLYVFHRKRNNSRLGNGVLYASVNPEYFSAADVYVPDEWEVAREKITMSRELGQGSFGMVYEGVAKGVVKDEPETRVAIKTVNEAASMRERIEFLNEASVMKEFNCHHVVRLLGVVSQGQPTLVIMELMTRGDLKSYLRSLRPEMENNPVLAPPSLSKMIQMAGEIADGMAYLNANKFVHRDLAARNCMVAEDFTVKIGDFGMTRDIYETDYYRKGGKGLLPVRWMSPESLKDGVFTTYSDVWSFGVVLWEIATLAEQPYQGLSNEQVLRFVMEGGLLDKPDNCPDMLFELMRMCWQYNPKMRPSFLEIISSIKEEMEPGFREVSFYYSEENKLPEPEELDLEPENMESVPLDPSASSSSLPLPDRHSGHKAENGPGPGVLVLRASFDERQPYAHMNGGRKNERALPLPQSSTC

For the compound `CC[C@H](C)[C@H](NC(=O)CN)C(=O)N[C@H](C(=O)N[C@@H](CC(=O)O)C(=O)N[C@@H](CCC(=O)O)C(=O)N[C@H]1CSSC[C@@H]2NC(=O)[C@H](CO)NC(=O)[C@H](CCCNC(=N)N)NC(=O)[C@H](Cc3ccccc3)NC(=O)[C@H](CSSC[C@H](NC(=O)[C@H](CC(C)C)NC(=O)[C@@H](NC(=O)[C@H](CCC(=O)O)NC(=O)[C@@H]3CCCN3C(=O)CN)[C@@H](C)O)C(=O)NCC(=O)N[C@@H](CO)C(=O)N[C@@H](Cc3c[nH]cn3)C(=O)N[C@@H](CC(C)C)C(=O)N[C@@H](C(C)C)C(=O)N[C@@H](CCC(=O)O)C(=O)N[C@@H](C)C(=O)N[C@@H](CC(C)C)C(=O)N[C@@H](Cc3ccc(O)cc3)C(=O)N[C@@H](CC(C)C)C(=O)N[C@@H](C(C)C)C(=O)N[C@H](C(=O)NCC(=O)N[C@@H](CC(=O)O)C(=O)N[C@@H](CCCNC(=N)N)C(=O)NCC(=O)N[C@@H](Cc3ccccc3)C(=O)N[C@@H](Cc3ccc(O)cc3)C(=O)N[C@@H](Cc3ccccc3)C(=O)N[C@@H](CC(N)=O)C(=O)N[C@@H](CCCCN)C(=O)N3CCC[C@H]3C(=O)N[C@H](C(N)=O)[C@@H](C)O)CSSC[C@@H](C(=O)N[C@@H](C)C(N)=O)NC(=O)[C@H](Cc3ccc(O)cc3)NC(=O)[C@H](CCSC)NC(=O)[C@H](CCC(=O)O)NC(=O)[C@H](CC(C)C)NC(=O)[C@H](CCCNC(=N)N)NC(=O)[C@H](CCCNC(=N)N)NC(=O)[C@H](CC(C)C)NC(=O)[C@H](CC(=O)O)NC2=O)NC1=O)C(C)C`, the Ratio at insulin receptor [1] stood at 82.6.

On to `CC[C@H](C)[C@H](NC(=O)CN)C(=O)N[C@H](C(=O)N[C@@H](CC(=O)O)C(=O)N[C@@H](CCC(=O)O)C(=O)N[C@H]1CSSC[C@@H]2NC(=O)[C@H](CO)NC(=O)[C@H](CCCNC(=N)N)NC(=O)[C@H](Cc3ccccc3)NC(=O)[C@H](CSSC[C@H](NC(=O)[C@H](CC(C)C)NC(=O)[C@@H](NC(=O)[C@H](CCC(=O)O)NC(=O)[C@@H]3CCCN3C(=O)CN)[C@@H](C)O)C(=O)NCC(=O)N[C@@H](C)C(=O)N[C@@H](CCC(=O)O)C(=O)N[C@@H](CC(C)C)C(=O)N[C@@H](C(C)C)C(=O)N[C@@H](CC(=O)O)C(=O)N[C@@H](C)C(=O)N[C@@H](CC(C)C)C(=O)N[C@@H](Cc3ccc(O)cc3)C(=O)N[C@@H](CC(C)C)C(=O)N[C@@H](C(C)C)C(=O)N[C@H](C(=O)NCC(=O)N[C@@H](CC(=O)O)C(=O)N[C@@H](CCCNC(=N)N)C(=O)NCC(=O)N[C@@H](Cc3ccccc3)C(=O)N[C@@H](Cc3ccc(O)cc3)C(=O)N[C@@H](Cc3ccccc3)C(=O)N[C@@H](CC(N)=O)C(=O)N[C@@H](CCCCN)C(=O)N3CCC[C@H]3C(=O)N[C@H](C(N)=O)[C@@H](C)O)CSSC[C@@H](C(=O)N[C@@H](C)C(N)=O)NC(=O)[C@H](Cc3ccc(O)cc3)NC(=O)[C@H](CCSC)NC(=O)[C@H](CCC(=O)O)NC(=O)[C@H](CC(C)C)NC(=O)[C@H](CCCNC(=N)N)NC(=O)[C@H](CCCNC(=N)N)NC(=O)[C@H](CC(C)C)NC(=O)[C@H](CC(=O)O)NC2=O)NC1=O)C(C)C` [IGF1 (Y^B16L^B17)], for which the “insulin receptor binding relative to native insulin (in words)” value at insulin receptor [1] (FIGS. 2-4, Tables 1 and 2) is “highly potent agonists of the insulin receptor”. The “% of Insulin Activity” value at insulin receptor [1] (Table 2, relative to Insulin Standard) turned out to be 262%.

As to `CC[C@H](C)[C@H](NC(=O)CN)C(=O)N[C@H](C(=O)N[C@@H](CC(=O)O)C(=O)N[C@@H](CCC(=O)O)C(=O)N[C@H]1CSSC[C@@H]2NC(=O)[C@H](CO)NC(=O)[C@H](CCCNC(=N)N)NC(=O)[C@H](Cc3ccccc3)NC(=O)[C@H](CSSC[C@H](NC(=O)[C@H](CC(C)C)NC(=O)[C@H](Cc3c[nH]cn3)NC(=O)[C@H](CCC(N)=O)NC(=O)[C@H](CC(N)=O)NC(=O)[C@@H](NC(=O)[C@@H](N)Cc3ccccc3)C(C)C)C(=O)NCC(=O)N[C@@H](CO)C(=O)N[C@@H](Cc3c[nH]cn3)C(=O)N[C@@H](CC(C)C)C(=O)N[C@@H](C(C)C)C(=O)N[C@@H](CCC(=O)O)C(=O)N[C@@H](C)C(=O)N[C@@H](CC(C)C)C(=O)N[C@@H](Cc3ccc(O)cc3)C(=O)N[C@@H](CC(C)C)C(=O)N[C@@H](C(C)C)C(=O)N[C@H](C(=O)NCC(=O)N[C@@H](CC(=O)O)C(=O)N[C@@H](CCCNC(=N)N)C(=O)NCC(=O)N[C@@H](Cc3ccccc3)C(=O)N[C@@H](Cc3ccc(O)cc3)C(=O)N[C@@H](Cc3ccccc3)C(=O)N[C@@H](CC(N)=O)C(=O)N[C@@H](CCCCN)C(=O)N3CCC[C@H]3C(=O)N[C@H](C(N)=O)[C@@H](C)O)CSSC[C@@H](C(=O)N[C@@H](C)C(N)=O)NC(=O)[C@H](Cc3ccc(O)cc3)NC(=O)[C@H](CCSC)NC(=O)[C@H](CCC(=O)O)NC(=O)[C@H](CC(C)C)NC(=O)[C@H](CCCNC(=N)N)NC(=O)[C@H](CCCNC(=N)N)NC(=O)[C@H](CC(C)C)NC(=O)[C@H](CC(=O)O)NC2=O)NC1=O)C(C)C` [IGF-1 A: In (1-17)-IGF-1 B (18-30)], the “IGF-1 Receptor % IGF-1 (in test)” value on human IGF-1 receptor was 0.9%. The Ratio at insulin receptor [1] is listed as 22.6. Also, the “Insulin Receptor % insulin (in test)” value at insulin receptor [1] (Table 3, relative to insulin in the same test) was 14.0% and 11.3% and 20.1%. For the same compound, on insulin receptor [1] (Table 3, relative to native insulin taken as 0.6 nM), the “Insulin Receptor % native insulin activity (0.6 nM)” value was 21.7% and 22.5% and 24.2%.

As for “GLP-1: native GLP-1: GLP-1(7-36) amide SEQ ID NO: 703 or GLP-1(7-37) acid SEQ ID NO: 704 [reference compound]”, the “in vitro glucagon receptor activity (EC50 values, in words)” value in the assay with glucagon receptor is given as “poor activity at the glucagon receptor”. Also, the “in vitro insulin receptor activity (EC50 values, in words)” value in the assay with insulin receptor [2] is reported as “poor activity at the insulin receptor”.

Values taken from US10696726B2, “Insulin-incretin conjugates” (INDIANA UNIVERSITY RESEARCH AND TECHNOLOGY CORPORATION, priority 2013, dated 2020).
